What is called IC50 is the point on the concentration scale where inhibition reaches its midpoint. High values mean lower potency, low ones higher potency.

This experiment concerns the target T1, Aurora kinase A (AKA) (Homo sapiens, UniProt O14965).
T1 sequence (O14965 1-403): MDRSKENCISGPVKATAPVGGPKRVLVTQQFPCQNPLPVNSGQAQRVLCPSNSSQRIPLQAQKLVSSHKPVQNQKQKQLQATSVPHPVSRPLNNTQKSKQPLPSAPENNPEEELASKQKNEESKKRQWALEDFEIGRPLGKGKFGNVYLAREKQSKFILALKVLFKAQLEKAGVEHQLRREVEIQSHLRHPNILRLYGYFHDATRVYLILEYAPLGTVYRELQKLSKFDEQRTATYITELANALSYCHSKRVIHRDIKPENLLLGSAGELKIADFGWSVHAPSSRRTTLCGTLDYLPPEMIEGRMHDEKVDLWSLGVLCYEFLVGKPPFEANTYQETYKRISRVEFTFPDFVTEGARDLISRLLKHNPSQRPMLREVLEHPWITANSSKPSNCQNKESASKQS
Description: kinase activity assay. It counts as biochemical.

As to MLN8054-TCO [compound 13], the IC50 was found to be 61.8 nM.
